Legend:
[1] = system: autoimmune diseases such as articular rheumatism, systemic lupus erythematosus and the like; settings: diseased animal models; cited from earlier work
histamine = assay: Plasma histamine level before and after induction of anaphylactic shock by OVA (Example 1); type: in vivo, BN/Crj rats (female); settings: 10 mg/kg orally once a day, ± SD; for Histamine amount, after OVA challenge: day 10, after OVA challenge; for Histamine amount, before OVA challenge: day 10, before OVA challenge
Description: (§1) Using female BN/Crj rats of 7 weeks old, sensitization by OVA was carried out as described below.
(§2) 10 mg/kg of OVA and 300 mg/kg of aluminum hydroxide (Alum) were intraperitoneally given (10 ml/kg) on the day (day 0) of administration. On day 3, 7 and 9 after the sensitization, blood samples were collected, the serum was separated and IgE concentration was determined. On day 10 after the sensitization, 60 mg/kg of OVA dissolved in physiological saline was given to the rats from the tail vein to cause anaphylactic shock. On the other hand, blood samples were collected at the jugular vein before and after the induction of the anaphylactic shock by OVA, and, after separation of the plasma, histamine level was determined.
(§3) The drug suspended in 1% carboxymethylcellulose (CMC) was repeatedly given orally once a day from day 0 to 9. […] All animals in each group were weighed in the morning once a week and the drug was given upon the body weights as weighed. To the solvent control group was given a 1% CMC solution. And further, non-medicated groups and non-treated groups were prepared. No treatment was applied to the non-treated group. The test was carried out using 6 rats per group.
Then, the plasma histamine levels before and after the induction of the anaphylactic shock by OVA on day 10 after OVA sensitization were determined as a parameter for allergic reactions.

IgE [2] = assay: Serum IgE level of OVA-sensitized BN rats by sandwich-type ELISA (Example 1); type: in vivo, BN/Crj rats (female); settings: day 9 after OVA sensitization, mean ± SD
Description: as §1, §2, §3
(§4) The effect of the anilide compounds (I) on BN rats was evaluated from the survival rates of BN rats, the IgE levels in the sera and the histamine levels in the plasma before and after the induction of anaphylactic shock by OVA.
The IgE level in sera was determined using the homemade sandwich-type ELISA system.

[3] = system: OVA-sensitized rat anaphylactic models; assay: Survival of OVA-sensitized BN rats after anaphylactic shock induced by OVA (Example 1); type: in vivo, BN/Crj rats (female); settings: for Survival Rate: day 0 to 9, OVA challenge day 10
Description: as §1, §2, §3, §4

[4] = system: OVA-sensitized rat anaphylactic models; assay: Minimum effective dose of leflunomide: survival of OVA-sensitized BN rats after anaphylactic shock (Example 2); type: in vivo, BN/Crj rats (female); settings: for Survival Rate: day 0 to 9
Description: (§5) Using female BN/Crj rats of 7 weeks old, sensitization by OVA was carried out as described below. 10 mg/kg of OVA and 300 mg/kg of aluminum hydroxide (Alum) were intraperitoneally given on the day (day 0) of administration. Blood samples were collected on day 3, 5, 7 and 9 after the sensitization, the serum was separated and IgE concentration was determined. And, 60 mg/kg of the OVA dissolved in physiological saline was given to the rats from the tail vein to cause anaphylactic shock.
(§6) The drug suspended in 1% carboxymethylcellulose (CMC) was repeatedly given orally once a day from day 0 to 9. […] All animals in each group were weighed in the morning once a week and the drug was given upon the body weights as weighed. A 1% CMC solution was given to the solvent control group. And further, non-treated group was prepared as control to which no treatment was applied. The test was carried out using 6 rats per group.

mast cells = settings: cited from earlier work
[5] = after administration; cited from earlier work
IgE [6] = assay: Minimum effective dose of leflunomide: serum IgE level of OVA-sensitized BN rats (Example 2); type: in vivo, BN/Crj rats (female); settings: for Serum IgE amount: day 9 after OVA, ± SD
Description: as §5, §6

mice = settings: cited from earlier work
[7] = leflunomide 0.5 mg/kg orally once a day
[8] = leflunomide 1 mg/kg orally once a day
[9] = leflunomide 2 mg/kg orally once a day

C/C(O)=C(\C#N)C(=O)Nc1ccc(C(F)(F)F)cc1 [Compound A, N-(4-trifluoromethylphenyl)-2-cyano-3-hydroxy-crotonamide]
effect on autoimmune diseases [1]: have an effect on autoimmune diseases such as articular rheumatism, systemic lupus erythematosus and the like | Histamine amount, after OVA challenge (histamine): 0.1 ± 0.0 µM | Histamine amount, before OVA challenge (histamine): 0.2 ± 0.1 µM | IgE amount in sera (IgE [2]; 10 mg/kg orally once a day): 0.3 ± 0.0 µg/mL | Survival Rate ([3]; 10 mg/kg orally once a day): 33%

Cc1cc(NC(=O)C(C#N)C(=O)C2CC2)ccc1C(F)(F)F (centres unmarked) [Compound B, 1-(3-methyl-4-trifluoromethylphenylcarbamoyl)-2-cyclopropyl-2-oxo-propionitrile]
Histamine amount, after OVA challenge (histamine): 1.3 ± 1.8 µM | Histamine amount, before OVA challenge (histamine): 0.4 ± 0.1 µM | IgE amount in sera (IgE [2]; 10 mg/kg orally once a day): 0.6 ± 0.5 µg/mL | Survival Rate ([3]; 10 mg/kg orally once a day): 100%

CN(C(=O)C(C#N)C(=O)C1CC1)c1ccc(Cl)cc1 (centres unmarked) [Compound C, 2-cyano-3-cyclopropyl-3-oxo-N-methyl-N-(4-chlorophenyl)-propionamide]
Histamine amount, after OVA challenge (histamine): 0.1 ± 0.0 µM | Histamine amount, before OVA challenge (histamine): 0.3 ± 0.2 µM | IgE amount in sera (IgE [2]; 10 mg/kg orally once a day): 0.5 ± 0.1 µg/mL | Survival Rate ([3]; 10 mg/kg orally once a day): 100%

N#Cc1ccc(NC(=O)C(C#N)C(=O)C2CC2)cc1 (centres unmarked) [Compound D, 2-cyano-3-cyclopropyl-3-oxo-(4-cyanophenyl) propionamide]
Histamine amount, after OVA challenge (histamine): 0.6 ± 0.5 µM | Histamine amount, before OVA challenge (histamine): 0.4 ± 0.2 µM | IgE amount in sera (IgE [2]; 10 mg/kg orally once a day): 0.6 ± 0.1 µg/mL | Survival Rate ([3]; 10 mg/kg orally once a day): 100%

C#CCCC(=O)C(C#N)C(=O)Nc1ccc(C(F)(F)F)cc1 (centres unmarked) [Compound E, 2-cyano-3-oxo-N-[4-(trifluoromethyl)phenyl]-6-heptinamide]
Histamine amount, after OVA challenge (histamine): 0.1 ± 0.0 µM | Histamine amount, before OVA challenge (histamine): 0.3 ± 0.1 µM | IgE amount in sera (IgE [2]; 10 mg/kg orally once a day): 0.4 ± 0.1 µg/mL | Survival Rate ([3]; 10 mg/kg orally once a day): 100%

Cc1oncc1C(=O)Nc1ccc(C(F)(F)F)cc1 [Leflunomide, 5-methylisoxazole-4-carboxylic acid-N-(4-trifluoromethyl) anilide]
Survival Rate [4, 7]: 0% | survival without anaphylactic shock ([4]; leflunomide 1 mg/kg): all animals survived without any anaphylactic shock | Survival Rate [4, 8]: 100% | survival without anaphylactic shock ([4]; leflunomide 2 mg/kg): all animals survived without any anaphylactic shock | Survival Rate [4, 9]: 100% | effect on autoimmune diseases [1]: have an effect on autoimmune diseases such as articular rheumatism, systemic lupus erythematosus and the like | inhibitory effect on histamine-release from mast cells (mast cells): has an inhibitory effect on histamine-release from mast cells | conversion to pharmacologically active Compound A [5]: converted to pharmacologically active Compound A as defined above by rapid metabolism after administration | IgE amount in sera (IgE [2]; 2 mg/kg orally once a day): 0.4 ± 0.1 µg/mL | IgE amount in sera (IgE [2]; 2 mg/kg orally once a day, listed as leflunomide): 0.4 µg/mL | inhibition of increase in serum IgE level (IgE [6]; after antigen sensitization): can inhibit an increase in the serum IgE level after the antigen sensitization | Serum IgE amount (IgE [6]; [7]): 357.7 ± 119.0 µg/mL | Serum IgE amount (IgE [6]; leflunomide 0.5 mg/kg orally once a day, listed as leflunomide): 357.7 µg/mL | Serum IgE amount (IgE [6]; [8]): 0.8 ± 0.1 µg/mL | Serum IgE amount (IgE [6]; leflunomide 1 mg/kg orally once a day, listed as leflunomide): 0.8 µg/mL | Serum IgE amount (IgE [6]; [9]): 0.4 ± 0.1 µg/mL | Serum IgE amount (IgE [6]; leflunomide 2 mg/kg orally once a day, listed as leflunomide): 0.4 µg/mL | survival without anaphylactic shock ([3]; 2 mg/kg): all animals survived without any anaphylactic shock | Survival Rate ([3]; 2 mg/kg orally once a day): 100% | LD50 (p.o.) (mice): 445 mg/kg

C[C@]12C=CC(=O)C=C1CC[C@@H]1[C@@H]2[C@@H](O)C[C@@]2(C)[C@H]1CC[C@]2(O)C(=O)CO [Prednisolone]
IgE amount in sera (IgE [2]; 2 mg/kg orally once a day): 148.1 ± 72.0 µg/mL | IgE amount in sera (IgE [2]; 2 mg/kg orally once a day, listed as prednisolone): 148.1 µg/mL | Survival Rate ([3]; 2 mg/kg orally once a day): 0%

— patent publication US5814649A, “Preventive and remedy for type 1 allergic diseases” (priority 1994, dated 1998)
